# Results taken from US4136173A (priority 1977, dated 1979).
# Counter-ions that a name gives are not always drawn.
# Columns and labels:
# [1] = intranasal evaluation of LH-RH gum formulations; assay type: in vivo; settings: 2% LH-RH, […] locust bean gum, […] xanthan gum, 0.5-1% phenylethyl alcohol
# Method: II. -- Formulations containing 2% LH-RH, 0.25% locust bean gum, 0.25% xanthan gum, and 0.5-1% phenylethyl alcohol were also prepared and evaluated intranasally.
# [2] = system: neuroleptically treated rats; assay: ovulation after subcutaneous LH-RH in neuroleptically treated rats; assay type: in vivo, rat
# Method: I. -- Formulations containing the polypeptide, gonadorelin also known as luteinizing hormone-releasing hormone (LH-RH) were evaluated for potency.
# Prepared by hydrating each gum separately at 80° C. for 30 minutes and treated with a cell disrupter for 2 minutes. The gum solutions were mixed in the presence of hydrochloric acid by adjusting the pH to 3. Chlorobutanol was then dissolved in the mixed gum solution and filtered. LH-RH was then dissolved in the gum solution over a dose range of 0 to 500 nanograms.
# The test solutions were administered subcutaneously to neuroleptically treated rats.
# Rabbits' eyes = assay: average miotic response intensity (pilocarpine hydrochloride formulations); assay type: in vivo, rabbit
# Method: rabbit's eyes were treated with 2 drops of the test solution, and pupillary diameters were measued with a cathetometer. The miotic response intensity was computed by taking the difference in pupillary diameters at zero time and time "T" (i.e., hours after instillation) and dividing it by the pupillary diameter at zero time. The table below illustrates the average miotic response for all eyes as a function of hours after instillation.
# Formulations containing pilocarpine hydrochloride were prepared as in Example 2 and are illustrated as follows: […]
smiles,measurement,setting,value
CC(C)C[C@H](NC(=O)CNC(=O)[C@H](Cc1ccc(O)cc1)NC(=O)[C@H](CO)NC(=O)[C@H](Cc1c[nH]c2ccccc12)NC(=O)[C@H](Cc1cnc[nH]1)NC(=O)[C@@H]1CCC(=O)N1)C(=O)N[C@@H](CCCNC(=N)N)C(=O)N1CCC[C@H]1C(=O)NCC(N)=O [LH-RH],LH-RH release after intranasal administration,[1],stimulates LH-RH release at a level greater than formulations without the mixed gums
same,Number of Ova Found,"[2]; 31 NG s.c., Control (No Gums)",0
same,Number of Rats Ovulating,"[2]; 31 NG s.c., Control (No Gums)",0/10
same,Number of Ova Found,"[2]; 31 NG s.c., with 0.5% Gums",0
same,Number of Rats Ovulating,"[2]; 31 NG s.c., with 0.5% Gums",0/10
same,Number of Ova Found,"[2]; 62 NG s.c., Control (No Gums)",7
same,Number of Rats Ovulating,"[2]; 62 NG s.c., Control (No Gums)",2/10
same,Number of Ova Found,"[2]; 62 NG s.c., with 0.5% Gums",8.7 ± 1.4
same,Number of Rats Ovulating,"[2]; 62 NG s.c., with 0.5% Gums",3/10
same,Number of Ova Found,"[2]; 125 NG s.c., Control (No Gums)",8 ± 1.2
same,Number of Rats Ovulating,"[2]; 125 NG s.c., Control (No Gums)",5/10
same,Number of Ova Found,"[2]; 125 NG s.c., with 0.5% Gums",10.6 ± 0.6
same,Number of Rats Ovulating,"[2]; 125 NG s.c., with 0.5% Gums",7/10
same,Number of Ova Found,"[2]; 250 NG s.c., Control (No Gums)",10.1 ± 0.5
same,Number of Rats Ovulating,"[2]; 250 NG s.c., Control (No Gums)",8/10
same,Number of Ova Found,"[2]; 250 NG s.c., with 0.5% Gums",11.2 ± 0.7
same,Number of Rats Ovulating,"[2]; 250 NG s.c., with 0.5% Gums",9/10
same,Number of Ova Found,"[2]; 500 NG s.c., Control (No Gums)",10.5 ± 0.6
same,Number of Rats Ovulating,"[2]; 500 NG s.c., Control (No Gums)",10/10
same,Number of Ova Found,"[2]; 500 NG s.c., with 0.5% Gums",11.5 ± 0.5
same,Number of Rats Ovulating,"[2]; 500 NG s.c., with 0.5% Gums",10/10
same,LH release and induction of ovulation,"[2]; s.c., fluphenazine dihydrochloride pre-treated proestrous rats",released LH and subsequently induced ovulation
CC[C@@H]1C(=O)OC[C@@H]1Cc1cncn1C [pilocarpine hydrochloride],potentiation of miotic response by gums,Rabbits' eyes; combined locust bean and xanthan gums,potentiate the miotic response
CC[C@@H]1C(=O)OC[C@@H]1Cc1cncn1C [pilocarpine],possible reduction of dose with gums,Rabbits' eyes; combined use of locust bean and xanthan gums,up to one fifth
